Literature values as cited in PMC5742115, “Pharmacophore Modeling and in Silico/in Vitro Screening for Human Cytochrome P450 11B1 and Cytochrome P450 11B2 Inhibitors” (Frontiers in Chemistry, 2017).
Read-outs that look alike come from different tables or passages of the source.

What was measured:
CYP11B2 = conditions: reported activity, supplementary Table 1, read-out: CYP11B2 IC50, cited from earlier work
CYP11B1 = conditions: reported activity, supplementary Table 1, read-out: CYP11B1 IC50, cited from earlier work

O=C1CCc2cc(-c3cncc(-c4cccc(C(F)(F)F)c4)c3)cc3c2N1CC3 [CHEMBL1765231]
IC50 (CYP11B2; ref Lucas et al., 2011): 33 nM
IC50 (CYP11B1; ref Lucas et al., 2011): 4650 nM

S=C1CCc2cc(-c3cccnc3)cc3c2N1CC3 [CHEMBL1765232]
IC50 (CYP11B2; ref Lucas et al., 2011): 1.2 nM
IC50 (CYP11B1; ref Lucas et al., 2011): 333 nM

Brc1ncccc1Cn1ccnc1 [CHEMBL2011242]
IC50 (CYP11B2; ref Hille et al., 2011a): 911 nM
IC50 (CYP11B1; ref Hille et al., 2011a): 61 nM

Fc1ccccc1-c1ccc(Cn2ccnc2)cn1 [CHEMBL2011244]
IC50 (CYP11B2; ref Hille et al., 2011a): 1740 nM
IC50 (CYP11B1; ref Hille et al., 2011a): 72 nM

Oc1ccc(-c2ccc(Cn3ccnc3)cn2)cc1F [CHEMBL2011246]
IC50 (CYP11B2; ref Hille et al., 2011a): 237 nM
IC50 (CYP11B1; ref Hille et al., 2011a): 17 nM

c1ccc2c(-c3ccc(Cn4ccnc4)cn3)cccc2c1 [CHEMBL2011253]
IC50 (CYP11B2; ref Emmerich et al., 2013): 656 nM
IC50 (CYP11B2; ref Hille et al., 2011a): 2080 nM
IC50 (CYP11B1; ref Emmerich et al., 2013): 68 nM
IC50 (CYP11B1; ref Hille et al., 2011a): 42 nM

c1ccc2c(-c3ccc(Cn4ccnc4)cn3)cncc2c1 [CHEMBL2011260]
IC50 (CYP11B2; ref Hille et al., 2011a): 914 nM
IC50 (CYP11B1; ref Hille et al., 2011a): 95 nM

c1csc(-c2ccc(Cn3ccnc3)cn2)c1 [CHEMBL2011261]
IC50 (CYP11B2; ref Hille et al., 2011a): 1240 nM
IC50 (CYP11B1; ref Hille et al., 2011a): 75 nM

Clc1ncc(Cn2ccnc2)cc1-c1cccs1 [CHEMBL2011430]
IC50 (CYP11B2; ref Hille et al., 2011a): 416 nM
IC50 (CYP11B1; ref Hille et al., 2011a): 73 nM

c1ccc2c(-c3ccc(Cn4ccnc4)cn3)csc2c1 [CHEMBL2011433]
IC50 (CYP11B2; ref Hille et al., 2011a): 1160 nM
IC50 (CYP11B1; ref Hille et al., 2011a): 40 nM

c1cn(Cc2ccc(-c3ccoc3)nc2)cn1 [CHEMBL2011435]
IC50 (CYP11B2; ref Hille et al., 2011a): 2830 nM
IC50 (CYP11B1; ref Hille et al., 2011a): 76 nM

c1coc(-c2cc(Cn3ccnc3)cnc2-c2ccco2)c1 [CHEMBL2011437]
IC50 (CYP11B2; ref Hille et al., 2011a): 830 nM
IC50 (CYP11B1; ref Hille et al., 2011a): 29 nM

CC(c1cc2c3c(c1)CCN3C(=O)CC2)n1ccnc1 (centres unmarked) [CHEMBL2163636]
IC50 (CYP11B2; ref Yin et al., 2012): 15 nM
IC50 (CYP11B1; ref Yin et al., 2012): 17 nM

CCC(c1cc2c3c(c1)CCN3C(=O)CC2)n1ccnc1 (centres unmarked) [CHEMBL2163637]
IC50 (CYP11B2; ref Yin et al., 2012): 5.8 nM
IC50 (CYP11B1; ref Yin et al., 2012): 6.5 nM

CC(C)C(c1cc2c3c(c1)CCN3C(=O)CC2)n1ccnc1 (centres unmarked) [CHEMBL2163638]
IC50 (CYP11B2; ref Yin et al., 2012): 1.4 nM
IC50 (CYP11B1; ref Yin et al., 2012): 3.8 nM

O=C1CCc2cc(C(C3CC3)n3ccnc3)cc3c2N1CC3 (centres unmarked) [CHEMBL2163639]
IC50 (CYP11B2; ref Yin et al., 2012): 24 nM
IC50 (CYP11B1; ref Yin et al., 2012): 2.2 nM

O=C1CCc2cc(C(C3CCC3)n3ccnc3)cc3c2N1CC3 (centres unmarked) [CHEMBL2163640]
IC50 (CYP11B2; ref Yin et al., 2012): 4.2 nM
IC50 (CYP11B1; ref Yin et al., 2012): 3.4 nM

C=C(c1cc2c3c(c1)CCN3C(=O)CC2)n1ccnc1 [CHEMBL2163641]
IC50 (CYP11B2; ref Yin et al., 2012): 100 nM
IC50 (CYP11B1; ref Yin et al., 2012): 19 nM

O=C1CCc2cc(C(c3ccccc3F)n3ccnc3)cc3c2N1CC3 (centres unmarked) [CHEMBL2163642]
IC50 (CYP11B2; ref Yin et al., 2012): 19 nM
IC50 (CYP11B1; ref Yin et al., 2012): 40 nM

O=C1CCc2cc(C(c3cccc(F)c3)n3ccnc3)cc3c2N1CC3 (centres unmarked) [CHEMBL2163643]
IC50 (CYP11B2; ref Yin et al., 2012): 18 nM
IC50 (CYP11B1; ref Yin et al., 2012): 29 nM

O=C1CCc2cc(C(c3ccc(F)cc3)n3ccnc3)cc3c2N1CC3 (centres unmarked) [CHEMBL2163644]
IC50 (CYP11B2; ref Yin et al., 2012): 29 nM
IC50 (CYP11B1; ref Yin et al., 2012): 27 nM

COc1cccc(C(c2cc3c4c(c2)CCN4C(=O)CC3)n2ccnc2)c1 (centres unmarked) [CHEMBL2163645]
IC50 (CYP11B2; ref Yin et al., 2012): 88 nM
IC50 (CYP11B1; ref Yin et al., 2012): 110 nM

O=C1CCc2cc(C(c3ccccc3)n3ccnc3)cc3c2N1CC3 (centres unmarked) [CHEMBL2163649]
IC50 (CYP11B2; ref Yin et al., 2012): 33 nM
IC50 (CYP11B1; ref Yin et al., 2012): 50 nM

O=C1CCc2cc(C(c3ccco3)n3ccnc3)cc3c2N1CC3 (centres unmarked) [CHEMBL2163650]
IC50 (CYP11B2; ref Yin et al., 2012): 47 nM
IC50 (CYP11B1; ref Yin et al., 2012): 20 nM

O=C1CCc2cc(C(c3cccs3)n3ccnc3)cc3c2N1CC3 (centres unmarked) [CHEMBL2163651]
IC50 (CYP11B2; ref Yin et al., 2012): 18 nM
IC50 (CYP11B1; ref Yin et al., 2012): 13 nM

COc1cc2c(cc1-c1cccnc1)CCC(=O)N2C [CHEMBL2165315]
IC50 (CYP11B2; ref Hu et al., 2012): 19 nM
IC50 (CYP11B1; ref Hu et al., 2012): 1100 nM

CCOc1cc2c(cc1-c1cccnc1)CCC(=O)N2C [CHEMBL2165317]
IC50 (CYP11B2; ref Hu et al., 2012): 19 nM
IC50 (CYP11B1; ref Hu et al., 2012): 790 nM

O=C1CCc2cc(-c3cccnc3)c(OCc3ccccc3)cc2N1 [CHEMBL2165320]
IC50 (CYP11B2; ref Hu et al., 2012): 22 nM
IC50 (CYP11B1; ref Hu et al., 2012): 44 nM

O=C1CCc2cc(-c3cccnc3)cc(Br)c2N1 [CHEMBL2165322]
IC50 (CYP11B2; ref Hu et al., 2012): 12 nM
IC50 (CYP11B1; ref Hu et al., 2012): 1420 nM

C=C(c1ccncc1)c1cc2c3c(c1)CCN3C(=O)CC2 [CHEMBL2312949]
IC50 (CYP11B2; ref Yin et al., 2013): 96 nM
IC50 (CYP11B1; ref Yin et al., 2013): 1230 nM

CC(c1ccncc1)c1cc2c3c(c1)CCN3C(=O)CC2 (centres unmarked) [CHEMBL2312950]
IC50 (CYP11B2; ref Yin et al., 2013): 74 nM
IC50 (CYP11B1; ref Yin et al., 2013): 140 nM

O=C1CCc2cc(C(O)(c3ccccc3)c3ccncc3)cc3c2N1CC3 (centres unmarked) [CHEMBL2312953]
IC50 (CYP11B2; ref Yin et al., 2013): 85 nM
IC50 (CYP11B1; ref Yin et al., 2013): 745 nM

COc1ccc(C(c2ccncc2)c2cc3c4c(c2)CCN4C(=O)CC3)cc1 (centres unmarked) [CHEMBL2312957]
IC50 (CYP11B2; ref Yin et al., 2013): 46 nM
IC50 (CYP11B1; ref Yin et al., 2013): 1690 nM
